The source of these data is patent US10815238B2, “Antimicrobial compounds and methods of making and using the same” (BIOVERSYS AG, priority 2013, dated 2020).

For orientation: MIC means the least concentration at which growth counts as inhibited.

This assay deals with Eschericia coli (E. coli) strain ATCC25922. Description: Standard microdilution assay, MIC against E. coli ATCC25922. It is filed as cell-based. The settings on record: Escherichia coli; E. coli strain ATCC25922, standard microdilution assay; cutoff 16 micrograms/mL; read-out: MIC E. Coli. As for the experimental part: The in vitro activity of the compounds of the present invention can be determined. Antimicrobial testing is typically performed to determine the minimum inhibitory concentration (MIC). Minimum inhibitory concentrations (MICs) are determined by the microdilution method in a final volume of 100 μl according to protocols outlined by The Clinical and Laboratory Standards Institute (CLSI). Performance standards for reference strains are assessed within the same experimental design to maintain quality control. See, for example, Clinical Laboratory Standards Institute: Methods for dilution antimicrobial susceptibility tests for bacteria that grow aerobically M7-A8. Approved Standard-Eighth Edition. Wayne, Pa.: CLSI; December 2008; and Clinical Laboratory Standards Institute: Performance Standards for Antimicrobial Susceptibility Testing M100-S20; Approved Standard-Twentieth Edition. Wayne, Pa.: CLSI; June 2010.
The compounds of the present invention were tested for antimicrobial activity. The Compounds 1-582 were run against Eschericia coli (E. coli) strain ATCC25922 and Compounds 320-582 were run against Staphylococcus aureus (S. aureus) 11540 strain using a standard microdilution assay to determine minimum inhibitory concentrations (MICs). […] It will be recognized by one skilled in the art that the compounds can be assessed against other bacterial organisms and that the presentation of data for activity against Eschericia coli and Staphylococcus aureus are illustrative and in no way is intended to limit the scope of the present invention. The compounds of the present invention can be assayed against a range of other microorganisms depending upon the performance activity desired to be gathered. Furthermore, the “+” and “−” representation and the selection of a cutoff value of 16 micrograms/mL is also illustrative and in no way is intended to limit the scope of the present invention.
A general note: Dilution methods test growth across graded concentrations, often in twofold steps.
For the molecule `CCc1c(F)c(CCC[C@H](C)N)cc(-c2cc3cn(-c4ccc([C@H](C)NCCCNC(=N)N)cc4)c(=O)nc3[nH]2)c1F` [Compound 218], the MIC was less than 16 µg/mL.
The figure for `C[C@H](N)CCCc1cc(Cl)c(F)c(-c2cc3cn(-c4ccc([C@H](C)NCC[C@@H](CCN)NC(=N)N)cc4)c(=O)nc3[nH]2)c1` [Compound 313] is less than 16 µg/mL.
The figure for `C=CCC[C@H](NCCCNC(=N)N)c1ccc(-n2cc3cc(-c4cc(CCC[C@H](C)N)cc(Cl)c4F)[nH]c3nc2=O)cc1` [Compound 81] is less than 16 µg/mL; for `C[C@H](N)CCCc1cc(-c2cc3cn(-c4ccc([C@H](C)NCCCNC(=N)N)cc4)c(=O)nc3[nH]2)c(F)cc1Cl` [Compound 10] it is less than 16 µg/mL.
The figure for `C[C@H](N)CCCc1cc(Cl)c(F)c(-c2cc3cn(-c4ccc([C@H](C)NCC[C@H](CCCO)NC(=N)N)cc4)c(=O)nc3[nH]2)c1` [Compound 275] is less than 16 µg/mL; for `COc1ccc([C@H](NCCCNC(=N)N)c2ccc(-n3cc4cc(-c5cc(CCC[C@H](C)N)cc(Cl)c5F)[nH]c4nc3=O)cc2)cc1` [Compound 5] it is less than 16 µg/mL.
For the molecule `C[C@H](N)CCCc1cc(-c2cc3cn(-c4ccc(CN5CCCN(C(=N)N)CC5)cc4)c(=O)nc3[nH]2)cc(C(F)(F)F)c1` [Compound 52], the MIC was less than 16 µg/mL.
The figure for `C[C@H](N)CCCc1cc(SC(F)(F)F)cc(-c2cc3cn(-c4ccc([C@H](N)CCCCNC(=N)N)cc4)c(=O)nc3[nH]2)c1` [Compound 93] is less than 16 µg/mL; for `C[C@H](N)CCCc1cc(Cl)c(F)c(-c2cc3cn(-c4ccc([C@@H](C)NCCCN)cc4)c(=O)nc3[nH]2)c1` [Compound 318] it is less than 16 µg/mL; for `C[C@H](N)CC[C@@H](O)c1cc(Cl)c(F)c(-c2cc3cn(-c4ccc([C@H](C)NCCCNC(=N)N)cc4)c(=O)nc3[nH]2)c1` [Compound 310] it is less than 16 µg/mL.
As to `C=CCNCCCN[C@@H](C)c1ccc(-n2cc3cc(-c4cc(CCC[C@H](C)N)cc(Cl)c4F)[nH]c3nc2=O)cc1` [Compound 213], the MIC is less than 16 µg/mL.
The figure for `C=C[C@H](CCNCc1ccc(-n2cc3cc(-c4cc(CCC[C@H](C)N)cc(OC(F)(F)F)c4F)[nH]c3nc2=O)cc1)NC(=N)N` [Compound 238] is less than 16 µg/mL.
As for `C[C@H](N)CCCc1cc(Cl)c(F)c(-c2cc3cn(-c4ccc([C@@H](CO)NCCCNC(=N)N)cc4)c(=O)nc3[nH]2)c1` [Compound 44], the minimum inhibitory concentration (MIC) was less than 16 µg/mL.
The figure for `C[C@H](N)CCCc1cc(Cl)c(F)c(-c2cc3cn(-c4ccc(CN[C@H](C)CCN)cc4)c(=O)nc3[nH]2)c1` [Compound 210] is less than 16 µg/mL.
The figure for `C[C@H](N)CCCc1cc(Cl)c(F)c(-c2cc3cn(-c4ccc([C@H](C)NCC[C@H](Cn5cc(CN)nn5)NC(=N)N)cc4)c(=O)nc3[nH]2)c1` [Compound 301] is less than 16 µg/mL; for `C[C@H](N)CCCc1cc(Cl)c(F)c(-c2cc3cn(-c4ccc([C@@H](C)NCCCNC(=N)N)cc4)c(=O)nc3[nH]2)c1` [Compound 317] it is less than 16 µg/mL; for `C[C@H](N)CCCc1cc(SC(F)(F)F)cc(-c2cc3cn(-c4ccc(CNCc5c[nH]nn5)cc4)c(=O)nc3[nH]2)c1` [Compound 121] it is more than 16 µg/mL.
The figure for `C[C@H](N)CCCc1cc(Cl)c(F)c(-c2cc3cn(-c4ccc(CNCC[C@@H](N)CO)cc4)c(=O)nc3[nH]2)c1` [Compound 167] is less than 16 µg/mL.
Take `C[C@H](NCCCNC(=N)N)c1ccc(-n2cc3cc(-c4cc(CCC[C@@H](N)CO)cc(OC(F)(F)F)c4F)[nH]c3nc2=O)cc1` [Compound 243]: the MIC is less than 16 µg/mL.
Turning to `C[C@H](N)CCCc1cc(Cl)cc(-c2cc3cn(-c4ccc([C@H](C)NCCCNC(=N)N)cc4)c(=O)nc3[nH]2)c1` [Compound 27], the MIC is less than 16 µg/mL.
In the case of `C[C@H](N)CCCc1cc(Cl)c(F)c(-c2cc3cn(-c4ccc([C@H](C)NCC[C@@H](CO)NC(=N)N)cc4)c(=O)nc3[nH]2)c1` [Compound 264] it was less than 16 µg/mL.
In the case of `C[C@H](N)CCCc1cc(Cl)c(F)c(-c2cc3cn(-c4ccc([C@@H]5CC[C@@H](CCNC(=N)N)N5)cc4)c(=O)nc3[nH]2)c1` [Compound 285] it was less than 16 µg/mL.
The figure for `C[C@H](N)CCCc1cc(OC(F)(F)F)c(F)c(-c2cc3cn(-c4ccc([C@H](C)NCC[C@H](Cn5ccnn5)NC(=N)N)cc4)c(=O)nc3[nH]2)c1` [Compound 294] is less than 16 µg/mL; for `N=C(N)N1CCN(Cc2ccc(-n3cc4cc(-c5ccc(C(NC6CN(C(=N)N)C6)C(F)(F)F)cc5)[nH]c4nc3=O)cc2)CC1` (stereo not drawn) [Compound 54] it is less than 16 µg/mL; for `COCC[C@H](NCCCNC(=N)N)c1ccc(-n2cc3cc(-c4cc(CCC[C@H](C)N)cc(Cl)c4F)[nH]c3nc2=O)cc1` [Compound 29] it is less than 16 µg/mL.
On to `C[C@H](N)CCCc1cc(Cl)c(F)c(-c2cc3cn(-c4ccc([C@@H](CCN)NCCCNC(=N)N)cc4)c(=O)nc3[nH]2)c1` [Compound 2], for which the MIC is less than 16 µg/mL.
The figure for `C[C@H](N)CCCc1cc(-c2cc3cn(-c4ccc([C@@H](NCCCNC(=N)N)C(=O)N5CCNCC5)cc4)c(=O)nc3[nH]2)cc(C(F)(F)F)c1` [Compound 13] is less than 16 µg/mL; for `C[C@H](NCCCNC(=N)N)c1ccc(-n2cc3cc(-c4cc(CCC[C@@H](N)CF)cc(SC(F)(F)F)c4)[nH]c3nc2=O)cc1` [Compound 117] it is less than 16 µg/mL; for `C[C@H](N)CC[C@H](O)c1cc(SC(F)(F)F)cc(-c2cc3cn(-c4ccc([C@H](C)NCCCNC(=N)N)cc4)c(=O)nc3[nH]2)c1` [Compound 68] it is less than 16 µg/mL.
As for `C[C@H](N)CCCc1cc(Cl)c(F)c(-c2cc3cn(-c4ccc(CNCc5cnc(N)s5)cc4)c(=O)nc3[nH]2)c1` [Compound 158], the MIC is more than 16 µg/mL.
The figure for `C=CC[C@@H](CCN[C@@H](C)c1ccc(-n2cc3cc(-c4cc(CCC[C@H](C)N)cc(OC(F)(F)F)c4F)[nH]c3nc2=O)cc1)NC(=N)N` [Compound 261] is less than 16 µg/mL.
In the case of `C[C@H](N)CCCc1cc(Cl)c(F)c(-c2cc3cn(-c4ccc([C@H](N)C(=O)NCCN)cc4)c(=O)nc3[nH]2)c1` [Compound 254] it was less than 16 µg/mL; in that of `C[C@H](N)CCCc1cc(Cl)c(F)c(-c2cc3cn(-c4ccc([C@@H](NCCCNC(=N)N)c5ccc(S(C)(=O)=O)cc5)cc4)c(=O)nc3[nH]2)c1` [Compound 39], less than 16 µg/mL.
The figure for `C[C@H](N)CCCc1cc(Cl)c(F)c(-c2cc3cn(-c4ccc([C@@H](N)CCN(C(=O)c5ccccc5)c5nccs5)cc4)c(=O)nc3[nH]2)c1` [Compound 161] is more than 16 µg/mL.
As for `C[C@H](N)CCCc1cc(Cl)c(F)c(-c2cc3cn(-c4ccc(CN[C@@H](C)CCNC(=N)N)cc4)c(=O)nc3[nH]2)c1` [Compound 195], the MIC is less than 16 µg/mL.
In the case of `COc1ccc([C@H](c2ccc(SC)cc2)c2ccc(-n3cc4cc(-c5cc(CCC[C@H](C)N)cc(SC(F)(F)F)c5)[nH]c4nc3=O)cc2)cc1` [Compound 8] it was more than 16 µg/mL; in that of `C[C@H](N)CCCc1cc(-c2cc3cn(-c4ccc([C@H](CO)NCCCNC(=N)N)cc4)c(=O)nc3[nH]2)cc(C(F)(F)F)c1` [Compound 108], less than 16 µg/mL.
The figure for `CCOC(=O)N[C@@H](C)CCCc1cc(Cl)c(F)c(-c2cc3cn(-c4ccc([C@H](C)NCCCNC(=N)N)cc4)c(=O)nc3[nH]2)c1` [Compound 71] is less than 16 µg/mL.
Take `COc1ccc(CNCc2ccc(-n3cc4cc(-c5cc(CCC[C@H](C)N)cc(SC(F)(F)F)c5)[nH]c4nc3=O)cc2)cn1` [Compound 146]: the MIC is more than 16 µg/mL.
The figure for `C[C@H](N)CCCc1cc(Cl)c(F)c(-c2cc3cn(-c4ccc([C@H](C)NCC[C@H](CCCN)NC(=N)N)cc4)c(=O)nc3[nH]2)c1` [Compound 282] is less than 16 µg/mL; for `C=CC[C@H](CCNCc1ccc(-n2cc3cc(-c4cc(CCC[C@H](C)N)cc(Cl)c4F)[nH]c3nc2=O)cc1)NC(=N)N` [Compound 207] it is less than 16 µg/mL; for `C[C@H](N)CCCc1cc(SC(F)(F)F)cc(-c2cc3cn(-c4ccc([C@@H](CCc5ccncc5)NCCCNC(=N)N)cc4)c(=O)nc3[nH]2)c1` [Compound 86] it is less than 16 µg/mL.
For the molecule `C[C@H](N)CCCc1cc(Cl)c(F)c(-c2cc3cn(-c4ccc(CNCC[C@@H](CO)NC(=N)N)cc4)c(=O)nc3[nH]2)c1` [Compound 191], the MIC is less than 16 µg/mL.
In the case of `C=C[C@H](CCN[C@@H](C)c1ccc(-n2cc3cc(-c4cc(CCC[C@H](C)N)cc(Cl)c4F)[nH]c3nc2=O)cc1)NC(=N)N` [Compound 236] it was less than 16 µg/mL; in that of `C[C@H](NCCCNC(=N)N)c1ccc(-n2cc3cc(-c4cc(CCC[C@@H](N)COC(=O)CCC(=O)O)cc(Cl)c4F)[nH]c3nc2=O)cc1` [Compound 308], less than 16 µg/mL.
The figure for `C[C@H](N)CCCc1cc(Cl)c(F)c(-c2cc3cn(-c4ccc(CNCC(=N)N)cc4)c(=O)nc3[nH]2)c1` [Compound 169] is more than 16 µg/mL; for `C[C@H](N)CCCc1cc(Cl)c(F)c(-c2cc3cn(-c4ccc([C@H](C)NCC[C@H](C)N)cc4)c(=O)nc3[nH]2)c1` [Compound 221] it is less than 16 µg/mL; for `C[C@H](N)CCCc1cc(-c2cc3cn(-c4ccc([C@H](N)CCCCNC(=N)N)cc4)c(=O)nc3[nH]2)cc(C(F)(F)F)c1` [Compound 235] it is less than 16 µg/mL.
